molecular target: Tie-2 (Homo sapiens, UniProt Q02763); experiment: Tie-2 tyrosine kinase activity: kinase-dependent ATP consumption (pEY substrate, luciferase/luciferin chemiluminescence) or 33P-ATP incorporation into substrate; assay type: biochemical; conditions: Tie-2 (human enzyme) inhibition, Table 2, class symbols A-D
In short: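 Values are IC50 categories: A below 50 nM, B above 50 to 1000 nM, C above 1000 to below 10,000 nM, D 10,000 nM or more. They were measured by 33P-ATP phosphate transfer onto a generic substrate bound to the plate (scintillation), or by luminescent luciferase detection of ATP used with pEY.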

Chain of Tie-2 (Q02763 23-1124): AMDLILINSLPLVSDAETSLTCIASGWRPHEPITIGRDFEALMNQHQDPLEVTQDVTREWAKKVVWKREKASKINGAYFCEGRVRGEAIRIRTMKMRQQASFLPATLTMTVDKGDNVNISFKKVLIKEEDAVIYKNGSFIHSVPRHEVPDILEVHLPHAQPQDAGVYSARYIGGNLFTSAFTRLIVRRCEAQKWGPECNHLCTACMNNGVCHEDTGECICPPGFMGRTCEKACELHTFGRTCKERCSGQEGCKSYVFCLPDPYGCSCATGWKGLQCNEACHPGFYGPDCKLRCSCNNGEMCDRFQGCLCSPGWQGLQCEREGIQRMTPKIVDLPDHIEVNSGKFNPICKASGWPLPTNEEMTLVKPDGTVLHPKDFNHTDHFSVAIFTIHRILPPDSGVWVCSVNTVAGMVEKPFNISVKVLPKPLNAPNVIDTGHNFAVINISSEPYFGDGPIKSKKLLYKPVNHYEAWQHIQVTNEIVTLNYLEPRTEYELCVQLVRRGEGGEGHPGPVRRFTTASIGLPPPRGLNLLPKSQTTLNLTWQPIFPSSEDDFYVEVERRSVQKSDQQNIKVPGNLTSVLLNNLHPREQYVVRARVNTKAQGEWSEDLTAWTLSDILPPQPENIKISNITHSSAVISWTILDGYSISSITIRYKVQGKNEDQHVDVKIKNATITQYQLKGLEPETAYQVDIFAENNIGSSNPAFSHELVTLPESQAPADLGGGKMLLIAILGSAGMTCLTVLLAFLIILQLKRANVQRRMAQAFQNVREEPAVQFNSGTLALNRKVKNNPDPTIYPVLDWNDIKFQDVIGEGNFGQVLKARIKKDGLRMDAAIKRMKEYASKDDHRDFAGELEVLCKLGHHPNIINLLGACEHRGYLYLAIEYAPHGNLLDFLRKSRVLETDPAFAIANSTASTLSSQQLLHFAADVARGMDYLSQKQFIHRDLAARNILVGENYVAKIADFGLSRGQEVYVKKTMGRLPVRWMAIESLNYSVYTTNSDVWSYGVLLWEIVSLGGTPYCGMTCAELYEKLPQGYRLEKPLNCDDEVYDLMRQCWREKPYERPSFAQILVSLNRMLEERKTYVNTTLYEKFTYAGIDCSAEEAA

Row | Compound | IC50 [µM]
1 | O=C(Cc1cccc2ccccc12)N(CCn1nc(-c2ccc(C(F)(F)F)cc2)nc1-c1ccncc1)C1CCCC1 [Entry 77, N-cyclopentyl-2-naphthalen-1-yl-N-(2-{5-pyridin-4-yl-3-[4-(trifluoromethyl)phenyl]-1H-1,2,4-triazol-1-yl}ethyl)acetamide] | ≥ 10
2 | COc1ccc(-c2nc(-c3ccncc3)nn2CCN(C(=O)Cc2cccc3ccccc23)C2CC2)cc1Cl [Entry 78, N-(2-{5-[3-chloro-4-(methyloxy)phenyl]-3-pyridin-4-yl-1H-1,2,4-triazol-1-yl}ethyl)-N-cyclopropyl-2-naphthalen-1-ylacetamide] | < 0.05
3 | COc1ccc(-c2nc(-c3ccncc3)nn2CCN(C(=O)Cc2cccc3ccccc23)C(C)C)cc1Cl [Entry 79, N-(2-{5-[3-chloro-4-(methyloxy)phenyl]-3-pyridin-4-yl-1H-1,2,4-triazol-1-yl}ethyl)-N-(1-methylethyl)-2-naphthalen-1-ylacetamide] | ≥ 10
4 | CCc1nc(-c2ccncc2)nn1CCN(C(=O)Cc1cccc2ccccc12)C1CCCC1 [Entry 80, N-cyclopentyl-N-[2-(5-ethyl-3-pyridin-4-yl-1H-1,2,4-triazol-1-yl)ethyl]-2-naphthalen-1-ylacetamide] | < 0.05
5 | COc1ccc(-c2nc(-c3ccncc3)nn2CCN(C(=O)Cc2cccc3ccccc23)C2CCN(C)CC2)cc1Cl [Entry 81, N-(2-{5-[3-chloro-4-(methyloxy)phenyl]-3-pyridin-4-yl-1H-1,2,4-triazol-1-yl}ethyl)-N-(1-methylpiperidin-4-yl)-2-naphthalen-1-ylacetamide] | ≥ 10
6 | COc1ccc(-c2nc(-c3ccncc3)nn2CCN(C(=O)N[C@@H]2C[C@H]2c2ccccc2)C2CCCC2)cc1Cl [Entry 82, N-(2-{5-[3-chloro-4-(methyloxy)phenyl]-3-pyridin-4-yl-1H-1,2,4-triazol-1-yl}ethyl)-N-cyclopentyl-N′-[(1R,2S)-2-phenylcyclopropyl]urea] | 1 to 10
7 | COc1ccc(-c2nc(-c3ccncc3)nn2CCN(C(=O)Nc2ccc(Cl)cc2Cl)C2CCCC2)cc1Cl [Entry 83, N-(2-{5-[3-chloro-4-(methyloxy)phenyl]-3-pyridin-4-yl-1H-1,2,4-triazol-1-yl}ethyl)-N-cyclopentyl-N′-(2,4-dichlorophenyl)urea] | ≥ 10
8 | COc1ccc(-c2nc(-c3ccncc3)nn2CCN(C(=O)Nc2ccccc2OC)C2CCCC2)cc1Cl [Entry 84, N-(2-{5-[3-chloro-4-(methyloxy)phenyl]-3-pyridin-4-yl-1H-1,2,4-triazol-1-yl}ethyl)-N-cyclopentyl-N′-[2-(methyloxy)phenyl]urea] | ≥ 10
9 | COc1ccc(NC(=O)N(CCn2nc(-c3ccncc3)nc2-c2ccc(OC)c(Cl)c2)C2CCCC2)c(OC)c1 [Entry 85, N′-[2,4-bis(methyloxy)phenyl]-N-(2-{5-[3-chloro-4-(methyloxy)phenyl]-3-pyridin-4-yl-1H-1,2,4-triazol-1-yl}ethyl)-N-cyclopentylurea] | ≥ 10
10 | COc1ccc(-c2nc(-c3ccncc3)nn2CCN(C(=O)Nc2ccccc2C)C2CCCC2)cc1Cl [Entry 86, N-(2-{5-[3-chloro-4-(methyloxy)phenyl]-3-pyridin-4-yl-1H-1,2,4-triazol-1-yl}ethyl)-N-cyclopentyl-N′-(2-methylphenyl)urea] | 1 to 10
11 | CCc1ccccc1NC(=O)N(CCn1nc(-c2ccncc2)nc1-c1ccc(OC)c(Cl)c1)C1CCCC1 [Entry 87, N-(2-{5-[3-chloro-4-(methyloxy)phenyl]-3-pyridin-4-yl-1H-1,2,4-triazol-1-yl}ethyl)-N-cyclopentyl-N′-(2-ethylphenyl)urea] | 1 to 10
12 | COc1ccc(-c2nc(-c3ccncc3)nn2CCN(C(=O)Nc2ccc(Cl)c(Cl)c2)C2CCCC2)cc1Cl [Entry 88, N-(2-{5-[3-chloro-4-(methyloxy)phenyl]-3-pyridin-4-yl-1H-1,2,4-triazol-1-yl}ethyl)-N-cyclopentyl-N′-(3,4-dichlorophenyl)urea] | ≥ 10
13 | CCCCCCNC(=O)N(CCn1nc(-c2ccncc2)nc1-c1ccc(OC)c(Cl)c1)C1CCCC1 [Entry 89, N-(2-{5-[3-chloro-4-(methyloxy)phenyl]-3-pyridin-4-yl-1H-1,2,4-triazol-1-yl}ethyl)-N-cyclopentyl-N′-hexylurea] | ≥ 10
14 | COc1ccc(-c2nc(-c3ccncc3)nn2CCN(C(=O)Nc2ccc(F)cc2)C2CCCC2)cc1Cl [Entry 90, N-(2-{5-[3-chloro-4-(methyloxy)phenyl]-3-pyridin-4-yl-1H-1,2,4-triazol-1-yl}ethyl)-N-cyclopentyl-N′-(4-fluorophenyl)urea] | ≥ 10
15 | COc1ccc(NC(=O)N(CCn2nc(-c3ccncc3)nc2-c2ccc(OC)c(Cl)c2)C2CCCC2)cc1 [Entry 91, N-(2-{5-[3-chloro-4-(methyloxy)phenyl]-3-pyridin-4-yl-1H-1,2,4-triazol-1-yl}ethyl)-N-cyclopentyl-N′-[4-(methyloxy)phenyl]urea] | ≥ 10
16 | COc1ccc(-c2nc(-c3ccncc3)nn2CCN(C(=O)NCc2ccccc2)C2CCCC2)cc1Cl [Entry 92, N-(2-{5-[3-chloro-4-(methyloxy)phenyl]-3-pyridin-4-yl-1H-1,2,4-triazol-1-yl}ethyl)-N-cyclopentyl-N′-(phenylmethyl)urea] | 1 to 10
17 | COc1ccc(-c2nc(-c3ccncc3)nn2CCN(C(=O)Nc2cc(C(F)(F)F)cc(C(F)(F)F)c2)C2CCCC2)cc1Cl [Entry 93, N′-[3,5-bis(trifluoromethyl)phenyl]-N-(2-{5-[3-chloro-4-(methyloxy)phenyl]-3-pyridin-4-yl-1H-1,2,4-triazol-1-yl}ethyl)-N-cyclopentylurea] | ≥ 10
18 | COc1ccc(-c2nc(-c3ccncc3)nn2CCN(C(=O)Nc2cc(OC)c(OC)c(OC)c2)C2CCCC2)cc1Cl [Entry 94, N-(2-{5-[3-chloro-4-(methyloxy)phenyl]-3-pyridin-4-yl-1H-1,2,4-triazol-1-yl}ethyl)-N-cyclopentyl-N′-[3,4,5-tris(methyloxy)phenyl]urea] | ≥ 10
19 | COc1ccc(-c2nc(-c3ccncc3)nn2CCN(C(=O)Nc2cccc(C(C)=O)c2)C2CCCC2)cc1Cl [Entry 95, N′-(3-acetylphenyl)-N-(2-{5-[3-chloro-4-(methyloxy)phenyl]-3-pyridin-4-yl-1H-1,2,4-triazol-1-yl}ethyl)-N-cyclopentylurea] | ≥ 10
20 | COc1ccc(-c2nc(-c3ccncc3)nn2CCN(C(=O)Nc2ccc(C)c(C)c2)C2CCCC2)cc1Cl [Entry 96, N-(2-{5-[3-chloro-4-(methyloxy)phenyl]-3-pyridin-4-yl-1H-1,2,4-triazol-1-yl}ethyl)-N-cyclopentyl-N′-(3,4-dimethylphenyl)urea] | ≥ 10
21 | COc1ccc(-c2nc(-c3ccncc3)nn2CCN(C(=O)Nc2ccc(Cl)cc2C(F)(F)F)C2CCCC2)cc1Cl [Entry 97, N-(2-{5-[3-chloro-4-(methyloxy)phenyl]-3-pyridin-4-yl-1H-1,2,4-triazol-1-yl}ethyl)-N′-[4-chloro-2-(trifluoromethyl)phenyl]-N-cyclopentylurea] | 1 to 10
22 | COc1ccc(-c2nc(-c3ccncc3)nn2CCN(C(=O)Nc2ccc(SC)cc2)C2CCCC2)cc1Cl [Entry 98, N-(2-{5-[3-chloro-4-(methyloxy)phenyl]-3-pyridin-4-yl-1H-1,2,4-triazol-1-yl}ethyl)-N-cyclopentyl-N′-[4-(methylthio)phenyl]urea] | ≥ 10
23 | COc1ccc(-c2nc(-c3ccncc3)nn2CCN(C(=O)Nc2ccc(C(C)=O)cc2)C2CCCC2)cc1Cl [Entry 99, N′-(4-acetylphenyl)-N-(2-{5-[3-chloro-4-(methyloxy)phenyl]-3-pyridin-4-yl-1H-1,2,4-triazol-1-yl}ethyl)-N-cyclopentylurea] | ≥ 10
24 | COc1ccc(-c2nc(-c3ccncc3)nn2CCN(C(=O)Nc2ccc(C(C)C)cc2)C2CCCC2)cc1Cl [Entry 100, N-(2-{5-[3-chloro-4-(methyloxy)phenyl]-3-pyridin-4-yl-1H-1,2,4-triazol-1-yl}ethyl)-N-cyclopentyl-N′-[4-(1-methylethyl)phenyl]urea] | ≥ 10
25 | COc1ccc(-c2nc(-c3ccncc3)nn2CCN(C(=O)Nc2ccc(C#N)cc2)C2CCCC2)cc1Cl [Entry 101, N-(2-{5-[3-chloro-4-(methyloxy)phenyl]-3-pyridin-4-yl-1H-1,2,4-triazol-1-yl}ethyl)-N′-(4-cyanophenyl)-N-cyclopentylurea] | ≥ 10
26 | COc1ccc(-c2nc(-c3ccncc3)nn2CCN(C(=O)Nc2ccccc2-c2ccccc2)C2CCCC2)cc1Cl [Entry 102, N′-biphenyl-2-yl-N-(2-{5-[3-chloro-4-(methyloxy)phenyl]-3-pyridin-4-yl-1H-1,2,4-triazol-1-yl}ethyl)-N-cyclopentylurea] | ≥ 10
27 | CCCCCNC(=O)N(CCn1nc(-c2ccncc2)nc1-c1ccc(OC)c(Cl)c1)C1CCCC1 [Entry 103, N-(2-{5-[3-chloro-4-(methyloxy)phenyl]-3-pyridin-4-yl-1H-1,2,4-triazol-1-yl}ethyl)-N-cyclopentyl-N′-pentylurea] | ≥ 10
28 | CCCCCCCNC(=O)N(CCn1nc(-c2ccncc2)nc1-c1ccc(OC)c(Cl)c1)C1CCCC1 [Entry 104, N-(2-{5-[3-chloro-4-(methyloxy)phenyl]-3-pyridin-4-yl-1H-1,2,4-triazol-1-yl}ethyl)-N-cyclopentyl-N′-heptylurea] | ≥ 10
29 | COc1ccc(-c2nc(-c3ccncc3)nn2CCN(C(=O)Nc2cccc(Cl)c2)C2CCCC2)cc1Cl [Entry 105, N-(2-{5-[3-chloro-4-(methyloxy)phenyl]-3-pyridin-4-yl-1H-1,2,4-triazol-1-yl}ethyl)-N′-(3-chlorophenyl)-N-cyclopentylurea] | ≥ 10
30 | COc1ccc(-c2nc(-c3ccncc3)nn2CCN(C(=O)Nc2cccc(C)c2)C2CCCC2)cc1Cl [Entry 106, N-(2-{5-[3-chloro-4-(methyloxy)phenyl]-3-pyridin-4-yl-1H-1,2,4-triazol-1-yl}ethyl)-N-cyclopentyl-N′-(3-methylphenyl)urea] | ≥ 10

From patent publication US8178570B2, “Tie-2 modulators and methods of use” (Exelixis, Inc., priority 2003, dated 2012)
